Assays:
trehalose phosphorylase [1] = molecular target: T1, trehalose phosphorylase (Thermoanaerobacter brockii, UniProt Q8L164); assay: Transglucosylation to polyalcohols by trehalose phosphorylase (GC analysis); type: biochemical, Thermoanaerobium brockii; design: key to Transfer of a glucosyl residue (Transglucosylation): +++: the area of 60% or higher; ++: 30% or higher but less than 60%; +: 0% or higher but less than 30%; −: Transglucosylation was not detected; details: 1% (w/v) polyalcohol as acceptor, 1.4% (w/v) β-G1P, pH 6.0, 50° C., 24 hours; for Transfer of a glucosyl residue (Transglucosylation): one unit/ml enzyme, peak area of transferred product to total peak area
T1 construct: cells collected from the culture were disrupted by ultrasonication and then, the supernatant was collected; made in house; host or cells: Thermoanaerobium brockii ATCC 35047 (natural producer, not recombinant); purified by DEAE, butyl and gel filtration chromatography
T1 sequence (Q8L164 1-774): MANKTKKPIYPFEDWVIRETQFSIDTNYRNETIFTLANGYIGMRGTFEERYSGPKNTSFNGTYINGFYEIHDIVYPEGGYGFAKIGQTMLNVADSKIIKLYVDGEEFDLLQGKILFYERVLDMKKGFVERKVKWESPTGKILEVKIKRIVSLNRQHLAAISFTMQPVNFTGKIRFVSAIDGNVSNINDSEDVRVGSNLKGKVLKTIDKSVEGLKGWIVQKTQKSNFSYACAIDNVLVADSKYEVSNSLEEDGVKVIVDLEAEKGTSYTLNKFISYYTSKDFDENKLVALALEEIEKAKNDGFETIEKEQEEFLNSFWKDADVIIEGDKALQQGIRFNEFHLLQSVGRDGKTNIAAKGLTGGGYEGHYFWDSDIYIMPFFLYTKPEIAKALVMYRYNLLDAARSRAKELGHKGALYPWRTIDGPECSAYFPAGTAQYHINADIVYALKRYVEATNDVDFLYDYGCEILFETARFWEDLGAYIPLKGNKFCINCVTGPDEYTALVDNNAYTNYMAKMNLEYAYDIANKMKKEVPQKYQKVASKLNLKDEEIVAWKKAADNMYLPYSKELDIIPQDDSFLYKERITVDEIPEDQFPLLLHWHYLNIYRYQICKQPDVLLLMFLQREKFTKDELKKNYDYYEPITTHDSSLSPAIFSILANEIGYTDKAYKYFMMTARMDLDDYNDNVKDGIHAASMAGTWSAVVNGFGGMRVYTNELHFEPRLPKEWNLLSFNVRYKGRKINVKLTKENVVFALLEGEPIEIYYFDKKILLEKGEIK
Protocol: (§1) An aqueous solution containing 1% (w/v) of either of polyalcohols (all reagent grade), shown in Table 1 below, 1.4% (w/v) of a reagent grade β-G1P, one unit/ml of trehalose phosphorylase obtained in Example 1-1, and 50 mM acetate buffer (pH 6.0) was prepared and followed by the enzyme reaction while keeping the solution at 50° C. for 24 hours. After the reaction, a portion of each reaction mixture was withdrawn, dried, and dissolved in pyridine for gas chromatography analysis (hereinafter, simply abbreviated as “GC”). In GC analysis, a stainless steel column (internal diameter 3 mm×length 2 m) packed with 2% Silicon OV-17/Chromosorb W”, commercialized by GL Science, Tokyo, Japan) was used. Nitrogen gas was used as carrier gas and the flow rate was set to 40 ml/min. A column oven was controlled to rise a column temperature at 160° C. to 320° C. in a rate of 7.5° C./min after the injection of samples. A hydrogen-flame ion detector was used for the detection. An aqueous solution with the same composition except for trehalose phosphorylase was prepared, kept with the same condition described above, and analyzed by GC by the same condition to confirm the chromatogram of non-reacted polyalcohol and β-G1P. Transfer of a glucosyl residue to each polyalcohol was judged by detecting new peak(s) in the chromatogram of the reaction mixture. The amount of glucosyl-transferred polyalcohol formed by the reaction was estimated based on a peak area of the glucosyl-transferred polyalcohol to the total peak area including that of non-reacted (residual) polyalcohol, and classified into three groups of the area of 60% or higher, “+++”; 30% or higher but less than 60%, “++”; and 0% or higher but less than 30%, “+”.

trehalose phosphorylase [2] = molecular target: T1, trehalose phosphorylase; assay: Transglucosylation to glucuronic acid and C-6DGs by trehalose phosphorylase (GC analysis); type: biochemical, Thermoanaerobium brockii; details: 1% (w/v) glucuronic acid or C-6DG as acceptor, 1.4% (w/v) β-G1P, one unit/ml enzyme, pH 6.0, 50° C., 24 hours; peak area of transferred product to total peak area
Protocol: as §1
An aqueous solution containing 1% (w/v) of any one of glucuronic acid or C-6DGs (all reagent grade), shown in Table 2 below, 1.4% (w/v) of a reagent grade β-G1P, one unit/ml of trehalose phosphorylase obtained in Example 1-1, and 50 mM acetate buffer (pH 6.0) was prepared and followed by the enzyme reaction while keeping the solution at 50° C. for 24 hours. After the reaction, each reaction mixture was analyzed by GC described in Example 1-2. In the same manner as described in Example 1-2, the amount of a glucosyl-transferred product formed by the reaction was estimated based on a peak area of the glucosyl-transferred product to the total peak area including that of non-reacted (remaining) glucuronic acid or C-6DGs, and classified into three groups of the area of 60% or higher, “+++”; 30% or higher but less than 60%, “++”; and 0% or higher but less than 30%, “+”.

OC[C@@H](O)[C@@H](O)CO [Erythritol]
Transfer of a glucosyl residue (Transglucosylation) (trehalose phosphorylase [1]): + (0% or higher but less than 30%)
Transglucosylation to the polyalcohol, stated in words (trehalose phosphorylase [1]): transferred a glucosyl residue

O=C[C@H](O)[C@@H](O)[C@H](O)[C@H](O)C(=O)O [Glucuronic acid]
Transfer of a glucosyl residue (Transglucosylation) (trehalose phosphorylase [2]): + (0% or higher but less than 30%)

OCC(O)CO [Glycerol]
Transfer of a glucosyl residue (Transglucosylation) (trehalose phosphorylase [1]): + (0% or higher but less than 30%)
Transglucosylation to the polyalcohol, stated in words (trehalose phosphorylase [1]): transferred a glucosyl residue

OC[C@H]1O[C@H](OC[C@H]2OC(O)[C@H](O)[C@@H](O)[C@@H]2O)[C@H](O)[C@@H](O)[C@@H]1O (stereo partly shown) [Isomaltose]
Transfer of a glucosyl residue (Transglucosylation) (trehalose phosphorylase [2]): +++ (the area of 60% or higher)

OC[C@H]1O[C@H](OC[C@H]2O[C@H](OC[C@H]3OC(O)[C@H](O)[C@@H](O)[C@@H]3O)[C@H](O)[C@@H](O)[C@@H]2O)[C@H](O)[C@@H](O)[C@@H]1O (stereo partly shown) [Isomaltotriose]
Transfer of a glucosyl residue (Transglucosylation) (trehalose phosphorylase [2]): +++ (the area of 60% or higher)

OC[C@H]1O[C@H](O[C@H]2[C@H](O)[C@@H](O)[C@@H](OC[C@H]3OC(O)[C@H](O)[C@@H](O)[C@@H]3O)O[C@@H]2CO)[C@H](O)[C@@H](O)[C@@H]1O (stereo partly shown) [Isopanose]
Transfer of a glucosyl residue (Transglucosylation) (trehalose phosphorylase [2]): +++ (the area of 60% or higher)

OC[C@H]1O[C@H](OCC2O[C@@H](O)[C@H](O)[C@@H](O)[C@@H]2O)[C@H](O)[C@@H](O)[C@H]1O (stereo partly shown) [Melibiose]
Transfer of a glucosyl residue (Transglucosylation) (trehalose phosphorylase [2]): +++ (the area of 60% or higher)

OC[C@@H](O)[C@@H](O)[C@@H](O)CO [Ribitol]
Transfer of a glucosyl residue (Transglucosylation) (trehalose phosphorylase [1]): + (0% or higher but less than 30%)
Transglucosylation to the polyalcohol, stated in words (trehalose phosphorylase [1]): transferred a glucosyl residue

OC[C@@H](O)[C@@H](O)[C@H](O)[C@@H](O)CO [Sorbitol]
Transfer of a glucosyl residue (Transglucosylation) (trehalose phosphorylase [1]): −*
Transglucosylation to the polyalcohol, stated in words (trehalose phosphorylase [1]): no transglucosylation

O[C@H]1[C@H](O)[C@@H](O)[C@H](O)[C@@H](O)[C@H]1O [myo-Inositol]
Transfer of a glucosyl residue (Transglucosylation) (trehalose phosphorylase [1]): ++ (30% or higher but less than 60%)
Transglucosylation to the polyalcohol, stated in words (trehalose phosphorylase [1]): transferred a glucosyl residue

Gentiobiose
Transfer of a glucosyl residue (Transglucosylation) (trehalose phosphorylase [2]): +++ (the area of 60% or higher)
